Experimental data from patent US20150148311A1, “NON-SYSTEMIC TGR5 AGONISTS” (Ardelyx, Inc., priority 2011, published 2015).

Tests used:
[1] = molecular target: T1, endogenously expressed TGR5 in NCI H716 (Homo sapiens, UniProt Q8TDU6); assay: Cell-based TGR5 assay, NCI-H716 cells endogenously expressing human TGR5, cAMP by HTRF; details: 30 min at 37 C, 22 nM to 50 μM, read-out: pEC50 endogenously expressed TGR5 in NCI H716 (converted)
T1 construct: human caecum carcinoma cell line NCI-H716 which endogenously expresses human TGR5; endogenous in cells; host or cells: NCI-H716
T1 sequence (Q8TDU6 1-330): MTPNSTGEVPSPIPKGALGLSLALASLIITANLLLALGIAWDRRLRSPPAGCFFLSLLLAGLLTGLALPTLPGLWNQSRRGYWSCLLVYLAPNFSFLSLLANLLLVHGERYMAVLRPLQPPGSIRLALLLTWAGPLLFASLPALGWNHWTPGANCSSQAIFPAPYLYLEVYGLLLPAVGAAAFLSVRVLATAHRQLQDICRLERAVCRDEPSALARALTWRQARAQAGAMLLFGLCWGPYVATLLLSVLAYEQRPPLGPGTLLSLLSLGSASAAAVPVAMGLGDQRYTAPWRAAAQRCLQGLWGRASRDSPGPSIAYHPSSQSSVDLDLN
Outline: (§1)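 cAMP HTRF read-out, converted to concentration via standard curve, after a 30 min, 37 °C compound exposure in HBSS with 10 mM HEPES pH 7.4 and 0.5 mM IBMX, compounds serially diluted 3-fold from 10 mM DMSO stock then 100-fold. Cells: stable human TGR5 HEK293, or NCI-H716 expressing TGR5 endogenously.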

human TGR5 = molecular target: T2, human TGR5 (Homo sapiens, UniProt Q8TDU6); assay: Cell-based TGR5 assay, HEK293 cells stably expressing human TGR5, cAMP by HTRF; details: HEK293 cells stably expressing human TGR5, 30 min at 37 C, 0.05 nM to 10 μM, read-out: pEC50 Human TGR5 (converted)
T2 construct: expressed in transfected cells
T2 sequence (Q8TDU6 1-330): T1 sequence (Q8TDU6 1-330)
Outline: as §1

[2] = Compound concentration in gallbladder 16 hours post dose; type: in vivo; details: 30 mg/kg; for Number of Mice with Gallbladder Concentration < LLOQ: mice below LLOQ / mice in group; for concentration at 16 h: male, C57BL/6, mouse, gallbladder (homogenate, with contents), mice, gallbladder, read-out: Mean Example Gallbladder Concentration
Procedure: Compound concentrations in the gall bladder were determined as follows: each mouse was heavily anesthetized with isoflurane, the peritoneal cavity was opened and the gallbladder, with its entire contents, was carefully excised. After harvest, gall bladders were homogenized in 100 μL water using a micro-homogenizer. Samples of homogenate were diluted 1:5 in water and precipitated with three volumes of neat acetonitrile. After centrifugation, supernatants were analyzed by LC-MS/MS. The level of test compound present in gall bladder samples was interpolated from a standard curve for each individual compound prepared in a matrix of gallbladder homogenate from vehicle treated animals.
C57BL/6 male mice on regular chow had food removed (to prevent gallbladder emptying) and were dosed in the early evening with vehicle (2% DMSO in 0.4% hydroxypropyl methylcellulose) or 30 mg/kg of examples 176, 177, or 178 formulated in vehicle. The next morning (˜16 h post-dose), mice were heavily anesthetized with isoflurane, the peritoneal cavity was opened and gallbladders (with contents) were carefully excised and weighed. Compound levels in gallbladder were analyzed as described in Example 293.

total (t)PYY = assay: Time course of in vivo induction of total PYY; details: C57BL/6 male mice; for induction of tPYY levels following a single oral dose: 30 mg/kg oral, 4, 8, 12 and 16 h
Procedure: (§2) C57BL/6 male mice on regular chow received an oral dose of vehicle (2% DMSO in 0.4% hydroxypropyl methylcellulose) or examples 176 or 178 (at 30 mg/kg). Food was removed prior to/or at the time of dosing: 4, 8, 12, and 16 h groups fasted for 7, 8, 12 and 16 h, respectively. At the appropriate time after dosing, mice were heavily anesthetized with isoflurane, and blood was collected from the left ventricle of the heart and processed to plasma as described in Example 293 for measurement of total (t) GLP-1 and, additionally, total (t)PYY (N45ZA-1; Meso Scales Discovery, Gaithersburg Md.).

[3] = Compound plasma concentration, LC-MS/MS, 8 h post dose; type: in vivo; details: 30 mg/kg; for Number of Mice with Plasma Concentration < LLOQ: mice below LLOQ / mice in group; for concentration at 8 h: male, C57BL/6, mouse, mice, plasma, read-out: Mean Example Plasma Concentration
Outline: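 Blood was taken from the left ventricle 8 h after dosing, under isoflurane anesthesia, into EDTA tubes containing aprotinin and DPPIV inhibitor. Plasma was protein-precipitated with acetonitrile containing an internal standard, and supernatants were analyzed by LC-MS/MS against a plasma standard curve.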

C57BL/6 male mice = assay: In vivo gallbladder measurement (weight) 16 hours post-dose; details: 30 mg/kg
CD-1 female mice = assay: In vivo measurement of CCK-mediated gallbladder emptying (egg yolk); details: fasted ~16 h, oral 30 mg/kg (devazepide 1 mg/kg) 1 h before egg yolk, gallbladder weighed 15 min later (FIG. 1)
Procedure: CD-1 female mice on regular chow had food removed (to prevent gallbladder emptying) in the late evening. The next morning (˜16 h later), groups of mice were dosed orally with vehicle (10% hydroxypropyl-β-cyclodextrin; 2 groups), devazepide in water (1 mg/kg; […]. One hour later, 1 group of vehicle-treated mice was dosed orally with saline, and all other groups were dosed orally with lyophilized egg yolk [0.75 mL; 30% (wt/vol) reconstituted in saline for induction of CCK-mediated gallbladder emptying]. Fifteen minutes later, mice were heavily anesthetized with isoflurane, the peritoneal cavity was opened and gallbladders (with contents) were carefully excised and weighed.

[4] = Compound concentration in gall bladder, LC-MS/MS, 8 h post dose; type: in vivo; details: 30 mg/kg; for Number of Mice with Gallbladder Concentration < LLOQ: mice below LLOQ / mice in group
Outline: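 Gallbladder with its contents excised from isoflurane-anesthetized mice 8 h after dosing and homogenized in water. Homogenate diluted 1:5, precipitated with acetonitrile and measured by LC-MS/MS. Levels interpolated from per-compound standard curves in vehicle-treated gallbladder homogenate.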

total (t) GLP-1 = assay: Time course of in vivo induction of total GLP-1; details: C57BL/6 male mice, 30 mg/kg oral, 4, 8, 12 and 16 h
Procedure: as §2

human FXR = molecular target: T3, human FXR (Homo sapiens, UniProt Q96RI1); assay: FXR counter screen, cell-based luciferase reporter assay; details: cells expressing human FXR and FXR-responsive luciferase reporter, 0.4 to 50 μM test compound; read-out: pEC50 human FXR (converted)
T3 construct: purchased Indigo Biosciences (State College, Pa.)
T3 sequence (Q96RI1 1-486): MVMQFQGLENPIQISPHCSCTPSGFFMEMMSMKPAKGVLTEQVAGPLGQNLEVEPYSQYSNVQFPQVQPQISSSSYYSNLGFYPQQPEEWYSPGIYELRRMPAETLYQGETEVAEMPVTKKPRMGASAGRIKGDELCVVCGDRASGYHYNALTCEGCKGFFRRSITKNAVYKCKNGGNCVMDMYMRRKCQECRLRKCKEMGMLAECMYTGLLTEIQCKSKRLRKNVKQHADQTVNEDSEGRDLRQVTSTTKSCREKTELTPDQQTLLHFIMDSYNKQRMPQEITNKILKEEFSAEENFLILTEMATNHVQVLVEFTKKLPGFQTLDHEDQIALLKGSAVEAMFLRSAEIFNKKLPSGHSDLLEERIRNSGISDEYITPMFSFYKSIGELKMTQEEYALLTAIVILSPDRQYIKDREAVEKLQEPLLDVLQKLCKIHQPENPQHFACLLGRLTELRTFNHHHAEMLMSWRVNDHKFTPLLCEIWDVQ
Procedure: FXR: The ability of test compounds to activate FXR (NR1H4) was measured using a cell-based assay kit obtained from Indigo Biosciences (State College, Pa.).

human IBAT = molecular target: T4, human IBAT (Homo sapiens, UniProt Q12908); assay: IBAT counter screen, [3H]taurocholic acid uptake in IBAT-transfected HEK293 cells; type: cell-based; details: read-out: pEC50 human IBAT (converted)
T4 construct: expressed in transfected cells; host or cells: HEK293
T4 sequence (Q12908 1-348): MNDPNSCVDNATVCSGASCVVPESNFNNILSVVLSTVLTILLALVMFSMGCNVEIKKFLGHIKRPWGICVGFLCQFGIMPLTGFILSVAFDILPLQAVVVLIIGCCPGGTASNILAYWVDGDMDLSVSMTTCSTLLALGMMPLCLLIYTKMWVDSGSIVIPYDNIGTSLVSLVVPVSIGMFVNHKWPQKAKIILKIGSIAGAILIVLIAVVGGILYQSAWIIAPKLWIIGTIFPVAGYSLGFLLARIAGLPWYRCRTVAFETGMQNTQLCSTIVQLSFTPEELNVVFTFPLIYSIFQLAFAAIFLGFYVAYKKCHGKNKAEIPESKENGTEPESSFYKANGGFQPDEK
Procedure: Following a 40-min incubation, the solution was removed, and the cells were washed twice with uptake buffer. Cells were lysed by addition of 20 μL 0.1% Tween 80 followed by 100 μL scintillation fluid and counted using a TopCount (Perkin Elmer).

mice = details: i.p. injection, in 30 minutes, literature (Li et al. 2011); cited from earlier work

EC50 [1]	EC50 (human TGR5)	Number of Mice with Gallbladder Concentration < LLOQ [2]	concentration at 16 h [2]	Number of Mice with Plasma Concentration < LLOQ [3]	concentration at 8 h [3]	inhibition of CCK-mediated gallbladder emptying (CD-1 female mice)	Number of Mice with Gallbladder Concentration < LLOQ [4]	Compound	induction of tPYY levels following a single oral dose (total (t)PYY)	effect on gallbladder weight/body weight (C57BL/6 male mice)	induction of tGLP-1 levels following a single oral dose (total (t) GLP-1)	also measured
				8/8	< 1 ng/mL	did not inhibit	0/8	O=C(CCCCc1cc(Cl)c(CN2CSC[C@H]2C(=O)N2CCN(C3CC3)c3ccccc32)cc1Cl)NC[C@H](O)[C@@H](O)[C@H](O)[C@H](O)CO [Example 178, 5-(2,5-dichloro-4-(((R)-4-(4-cyclopropyl-1,2,3,4-tetrahydroquinoxaline-1-carbonyl)thiazolidin-3-yl)methyl)phenyl)-N-((2S,3R,4R,5R)-2,3,4,5,6-pentahydroxyhexyl)pentanamide]	sustained induction	no significant effect	sustained induction	times after dosing at which tPYY levels were significantly elevated (total (t)PYY; 30 mg/kg oral, tested 4, 8, 12 and 16 h (FIG. 2, panel B)): 8 h; EC50 (human FXR): > 50100 nM; EC50 (human IBAT): > 25100 nM
						did		CN1C(=O)[C@@H](NC(=O)c2cc3ccccc3[nH]2)N=C(c2ccccc2)c2ccccc21 [devazepide, reference compound]				

Continued, molecule first:

Compound	EC50 [1]	EC50 (human TGR5)	Number of Mice with Gallbladder Concentration < LLOQ [2]	concentration at 16 h [2]	Number of Mice with Plasma Concentration < LLOQ [3]	concentration at 8 h [3]	inhibition of CCK-mediated gallbladder emptying (CD-1 female mice)	Number of Mice with Gallbladder Concentration < LLOQ [4]	induction of tPYY levels following a single oral dose (total (t)PYY)	effect on gallbladder weight/body weight (C57BL/6 male mice)	induction of tGLP-1 levels following a single oral dose (total (t) GLP-1)	also measured
O=C(O)CCc1cc(Cl)c(CNC2(C(=O)N3CCN(C4CC4)c4ccccc43)CC2)cc1Cl [Example 83, 3-(2,5-dichloro-4-(((1-(4-cyclopropyl-1,2,3,4-tetrahydroquinoxaline-1-carbonyl)cyclopropyl)amino)methyl)phenyl)propanoic acid]	1260 to 50100 nM	126 to 1000 nM	0/6	30 nM								
O=C(N1CCCc2cccnc21)C1(OCc2cc(Cl)ccc2Cl)CC1 [Example 85, 1-([1-[(2,5-dichlorophenyl)methoxy]cyclopropyl]carbonyl)-1,2,3,4-tetrahydro-1,8-naphthyridine]	1260 to 50100 nM	126 to 1000 nM	0/6	200 nM								
O=C(NC[C@H](O)[C@@H](O)[C@H](O)[C@H](O)CO)c1ccc(COc2cc(Cl)c(CN3CSC[C@H]3C(=O)N3CCN(C4CC4)c4ccccc43)cc2Cl)cc1 [Example 176, 4-(2,5-dichloro-4-{[(4R)-4-[(4-cyclopropyl-1,2,3,4-tetrahydroquinoxalin-1-yl)carbonyl]-1,3-thiazolidin-3-yl]methyl}phenoxymethyl)-N-[(2S,3R,4R,5R)-2,3,4,5,6-pentahydroxyhexyl]benzamide]					8/8	< 2 ng/mL	did not inhibit	0/8	sustained induction	no significant effect	sustained induction	concentration at 8 h ([4]; male, C57BL/6, mouse, with contents, mice, gallbladder homogenate, read-out: Mean Example Gallbladder Concentration): 100 nM
CC[C@H]1[C@@H](O)[C@@H]2[C@H](C[C@H](O)[C@]3(C)[C@@H]([C@H](C)C[C@H](C)C(=O)O)CC[C@@H]23)[C@@]2(C)CC[C@@H](O)C[C@@H]12 [INT-777]												increase of gallbladder volume (mice): approximately two-fold
